PubChem BioAssay (NCI)
“And” between values parts separate entries of the source, which are not always exact repeats. Equal values may be shown once.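 Compound exposure: 48 hours, 5 concentrations, 96-well plates. At the GI50, growth is halved. TGI marks complete inhibition of growth.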

Tests used:
Assay in all cases: DTP human tumour cell line panel, 48 h
[1] = tested on: CAKI-1 renal
[2] = tested on: EKVX NSCLC
[3] = tested on: M19-MEL melanoma
[4] = tested on: SF-539 CNS
[5] = tested on: HOP-62 NSCLC
[6] = tested on: OVCAR-8 ovarian
[7] = tested on: UO-31 renal
[8] = tested on: SNB-78 CNS
[9] = tested on: NCI/ADR-RES ovarian
[10] = tested on: HS 578T breast

SMILES	TGI [1]	TGI [2] [µM]	TGI [3] [µM]	TGI [4] [µM]	TGI [5] [µM]	TGI [6]	TGI [7] [µM]	TGI [8] [µM]	GI50 [1] [µM]	GI50 [9] [µM]	TGI [9] [µM]	GI50 [2]	GI50 [4]	GI50 [10]	TGI [10] [µM]	GI50 [5] [µM]	GI50 [6]	GI50 [7] [µM]	GI50 [3] [µM]
CS(=O)(=O)N(CCC#N)c1ccc(C=O)cc1	> 100 µM	> 100	> 100	> 100	> 100	> 100 µM	> 100												
COc1ccc2c(CCNC(=O)/C=C/c3ccccc3)c(C(C)=O)[nH]c2c1[N+](=O)[O-]	44.5 µM			61	76.2	> 100 µM	> 100	> 100											
O=C(O)c1ccccc1N=Nc1ccc2oc(=O)c(C(=O)Nc3ccccc3)cc2c1		> 100	> 100	> 100	97.7	> 100 µM	> 100												
CCOC(=O)C(C)(C)Oc1ccc2c(-c3ccc(Cl)cc3)c(-c3ccc(Cl)cc3)c(=O)oc2c1		> 100	> 100	> 100	> 100	> 100 µM	> 100												
CCN(CC)CCn1c2ccc(OC)cc2c2sc3cc(OC)ccc3c(=O)c21	3.77 µM	3.36		3.05	8.62	11.3 µM	3.02		1.65	1.24	3.6	1.6 µM	1.66 µM	1.96 µM	4.98	2.32	1.93 µM	1.35	
O=C(N/N=C/c1ccc(Cl)cc1Cl)c1ccc2nc(-c3ccc(Cl)cc3)[nH]c2c1	3.29 µM	3.68		3.17	4.1	4.74 µM	2.99		1.7	1.83	4.44	1.82 µM	1.7 µM	2.28 µM	5.27	1.8	2.11 µM	1.58	
Clc1cc(-c2ccccc2)nc2ccccc12	> 100 µM	> 100		> 100	> 100	> 100 µM	> 100				> 100				> 100				
COc1cccc(CCC(=O)c2cc3c(N)c(C(=O)Nc4cccc(Cl)c4C)sc3nc2C)c1	> 100 µM	> 100		2.78	> 100	> 100 µM	> 100		0.535	0.388	10.4	0.998 µM	0.408 µM	0.343 µM		1.1	1.44 µM	0.86	
Nc1cc(S(N)(=O)=O)ccc1SSc1ccc(S(N)(=O)=O)cc1N	> 100 µM	> 100		> 100	> 100	> 100 µM	> 100				> 100				> 100				
COc1ccc2c(c1)c(-c1ccc(-c3cn(C)c4ccc(OC)cc34)[nH]1)cn2C	11.2 µM	3.74		3.96	33.5	12.2 µM	2.83		3.36	3.39	20	1.73 µM	1.92 µM	1.36 µM	4.24	10.1	2.71 µM	1.42	
COc1cc(/C=C\c2ccc(Br)cc2)cc(OC)c1OC	18.5 µM	> 100	> 100	0.00366	23.9														0.363
Nc1ccc(C(OC(=O)c2cc3ccccc3c(Cc3c(O)c(C(=O)OC(c4ccc(N)cc4)(c4ccc(N)cc4)c4ccc(N)cc4)cc4ccccc34)c2O)(c2ccc(N)cc2)c2ccc(N)cc2)cc1	> 100 µM	> 100		14.2	14.1	36.6 µM	63.4		13.6	15.5	> 100	2.37 µM	0.362 µM	0.201 µM	0.867	0.331	0.388 µM	3.66	
C[C@@H](COCCC(=O)N1CCN(c2ncc(C(F)(F)F)cn2)CC1)Nc1cn[nH]c(=O)c1C(F)(F)F	> 100 µM	> 100		> 100	> 100	> 100 µM	> 100		14.1	> 90.5	> 100	> 94 µM	16.4 µM	50.7 µM	> 100	23.6	32.7 µM	32.1	
Cn1cnc2c(F)c(Nc3ccc(Br)cc3F)c(C(=O)NOCCO)cc21	> 100 µM	> 100		> 100	> 100	> 100 µM	> 100		5.94	> 100	> 100	0.109 µM and 0.503 µM	> 3.24 µM and 21.5 µM	> 2.14 µM and 33.6 µM	> 100		> 2.17 µM and 99.7 µM	7.41	
CC(C)C[C@H](NC(=O)[C@H](Cc1cccc2ccccc12)NS(=O)(=O)c1cccc2cccnc12)B(O)O	0.198 µM and 1.19 µM	> 100			0.563	0.409 µM and 2.9 µM	1.06		0.032		17.7	0.109 µM	0.000193 µM	0.00137 µM	0.017	0.0511	0.117 µM	0.353	
COc1cc(NC(=O)NCc2ccco2)ccc1-c1ccc(NC(=O)NCc2ccco2)cc1OC	> 100 µM	31		2.62	11.3	11.7 µM	55.8		10.1	> 100	> 100	3.26 µM	0.663 µM	1.51 µM	6.86	1.94	1.88 µM	4.4	
CC1(C)CC([P+](c2ccccc2)(c2ccccc2)c2ccccc2)=NN1	> 100 µM	> 100		97.3	> 100	> 100 µM	> 100		> 100	> 100	> 100	2.42 µM	6.13 µM	4.96 µM	> 100	7.4	5.92 µM	> 100	
NC(=O)c1ccccc1NC(=O)c1ccccc1Cl	> 100 µM	> 100		> 100	> 100	> 100 µM	> 100		> 100	> 100	> 100	> 100 µM	> 100 µM	> 100 µM	> 100	> 100	> 100 µM	> 100	
Clc1ccc(CNc2nccc(-c3cnn4ncccc34)n2)cc1	> 18.8 µM	> 19.9		15.6	> 25	> 25 µM	> 19.5		5.62	6.75	> 25	5.54 µM	6.25 µM	7.78 µM	> 23.5	7.59	6.63 µM	6.75	
NS(=O)(=O)c1ccc(-n2ncc3c(Nc4ccccc4)ncnc32)cc1	> 100 µM	> 100		> 100	48.5	65 µM	> 100		23.7	19.5	55.4	41.4 µM	36.2 µM	33.8 µM	> 100	16.7	18.3 µM	23.9	
N#Cc1ccc(Oc2cccc(Oc3ccccc3)c2)cc1C#N	> 100 µM	> 100	> 100	> 100	> 100	> 100 µM	61.6		> 100							> 100	> 100 µM		> 100
c1ccc(B2OCC(C3OB(c4ccccc4)OC4COB(c5ccccc5)OC43)O2)cc1 (centres undefined)	> 100 µM	> 100		> 100	> 100	> 100 µM	> 100				> 100				> 100				
Nc1nccc2c1ncn2C1OC(CO)C(O)C1O (centres undefined)	> 100 µM	> 100		> 100	> 100	> 100 µM	> 100		> 100	> 100	> 100	> 100 µM	> 100 µM	> 100 µM	> 100	> 100	91.5 µM	28.8	
CC(=O)/C=C1\CC(=O)Nc2ccccc2N1	> 100 µM	> 100		> 100		> 100 µM	> 100	> 100											
CCC1(NC(=O)c2cc(F)c(F)c(F)c2F)C(=O)NC(=O)N(C(C)C)C1=O (centres undefined)	> 100 µM	97		> 100	> 100	> 100 µM	> 100		29.8	31.8	88.3	24.6 µM	> 100 µM	12 µM	37.2	58	34.6 µM	> 100	
COc1ccc(-c2cc(-c3cccc(NS(C)(=O)=O)c3)nc(N)c2C#N)cc1	> 34.4 µM	> 81.6		0.491	34.6	34.6 µM	> 43.7		0.0766	0.0603	1.1	0.525 µM	0.0478 µM	0.0468 µM	2.39	0.0689	0.222 µM	0.124	
